Experimental data published in article PMC10852989, “Combining cisplatin and a STING agonist into one molecule for metalloimmunotherapy of cancer” (National Science Review, 2024).

System: Pan02 tumors
Experiment: in vivo antitumor activity, C57BL/6 mice bearing Pan02 tumors
Design: species or system mouse
Procedure: In vivo antitumor activity. Female C57BL/6 mice (6–8 weeks old) were subcutaneously implanted with pan02 cells (2 × 10^6) in the right flank. Once the tumor volume reached approximately 60 mm^3, the mice were assigned to 4 groups at random (n = 5–8) and received treatment with PBS, CDDP (10.0 μmol/kg), I (10.0 μmol/kg), or a mixture of CDDP (10.0 μmol/kg) and MSA-2 (10.0 μmol/kg). The mice received 9 treatments. Changes in body weight and tumor volume were recorded. All the experimental procedures utilizing mice were performed in accordance with the Guidelines for Care and Use of Laboratory Animals of Nanjing University and experiments were approved by the Institutional Animal Care and Use Committee of Nanjing University (IACUC-2101001, SL-019-00).

COc1cc2cc(C(=O)CCC(=O)[O][Pt]([NH2])([NH2])([OH])([Cl])[Cl])sc2cc1OC [conjugate I]
tumor volume (C57BL/6 mice, Pan02 tumors, 10.0 μmol/kg every 2 days for 16 days, intravenous): 106.3 ± 6.2 mm^3
tumor growth after cessation of treatment (monitored another 6 days): substantially suppressed
